Patent US8859756B2, “Stereoselective synthesis of phosphorus containing actives” (Gilead Pharmasset LLC, priority 2010, dated 2014)
Read-outs that look alike come from different tables or passages of the source.

Assays:
Assay type in all cases: cell-based
HCV RNA replication = experiment: HCV Inhibition Assay (replicon; RT-PCR or luciferase reporter readout); conditions: concentration for 90% inhibition of HCV replication, Clone A or ET-lunet replicon cells, 4 days
Protocol: Clone A or ET-lunet cells were seeded at a density of 1500 or 3000 cells per well in a 96-well plate, respectively. Test compounds serially diluted in culture medium without G418 were added to cells so that the final DMSO concentration was 0.5%. Plates were incubated at 37° C. in a 5% CO2 atmosphere for 4 days. Inhibition of HCV RNA replication was determined by real time PCR (RT-PCR) or by measuring the levels of luminescence expressed via the luciferase reporter gene encoded within the ET replicon. Briefly, for the RT-PCR assay, total RNA was extracted using the RNeasy-96 kit as recommended by the manufacturer (Qiagen, Valencia, Calif.), reversed transcribed into cDNA, and amplified using primer and probe mix for HCV 5′-NTR RNA and human ribosomal RNA (rRNA) in a one-step RT-PCR reaction as described previously (Stuyver, L. J. et al. Antiviral Chem. Chemother. (2006) 17, 79-87). A relative quantification method was used to determine the extent of inhibition. The threshold cycle (Ct) of rRNA was subtracted from the Ct of HCV RNA (ΔCt). The average ΔCt of the DMSO cell controls was then subtracted from the ΔCt of the compound treated sample (ΔΔCt). Percent inhibition was determined by using the following equation: %=(1−(2^−ΔΔC^t))×100. For the luciferase-based replicon assay, luminescence was measured by using a Victor3 plate reader (Perkin-Elmer, Boston, Mass.) following the addition of Bright-Glo reagent as recommended by the manufacturer (Promega, Madison, Wis.). Percent inhibition of HCV replication was determined by comparing the change in luminescence of the drug treated wells versus the DMSO cell controls. EC50 and EC90 values, the concentrations at which 50% and 90% inhibition were achieved, were determined using the GraphPad Prism software (San Diego, Calif.).

[1] = Cell Cytotoxicity Assays (MTS dye); conditions: human, 50% inhibition value, cell line not given; for CC50: 8 days
Protocol: (§1) Cell Cytotoxicity Assays.
(§2) Each compound (serially diluted from 100 μM) was added to Huh7 (2×10^3 cells/well), HepG2 (2×10^3 cells/well), BxPC3 (2×10^3 cells/well), or CEM (5×10^3 cells/well) cells and allowed to incubate for 8 days at 37° C. A medium only control was used to determine the minimum absorbance value […]. At the end of the growth period, MTS dye from the CellTiter 96 Aqueous One Solution Cell Proliferation Assay kit (Promega) was added to each well and the plate was incubated for an additional 2 hours. The absorbance at 490 nm was read with a Victor3 plate reader (Perkin Elmer) using the medium only control wells as blanks. The 50% inhibition value (CC50) was determined by comparing the absorbance in wells containing cells and test compound to untreated cell control wells.

[2] = test system: Huh7, HepG2, BxPC3, or CEM cells; experiment: Cell Cytotoxicity Assays (MTS dye); conditions: 50% inhibition value, 8 days, cell line not given
Protocol: as §1, §2

[3] = Cytotoxicity, MTT Assay (table footnote a)
[4] = Hepatitis C virus, 96 h, read-out: EC90

In the case of `COc1nc(N)nc2c1ncn2[C@@H]1O[C@H](COP(=O)(NCc2ccccc2)OCCSC(=O)C(C)(C)CO)[C@@H](O)[C@@]1(C)O` (single isomer, unassigned) [Compound 131a], the EC90 (HCV RNA replication; [4]) is reported as 93 nM and the CC50 at 8 days [1] is reported as > 20000 nM.
For `COc1nc(N)nc2c1ncn2[C@@H]1O[C@H](COP(=O)(NCc2ccccc2)OCCSC(=O)C(C)(C)CO)[C@@H](O)[C@@]1(C)O` (single isomer, unassigned) [Compound 131b], the EC90 (HCV RNA replication; read-out: EC90) was 186 nM and the CC50 [2] was > 20000 nM.
With `CC(C)(CO)C(=O)SCCOP(=O)(NCc1ccccc1)OC[C@H]1O[C@@H](n2cnc3c(=O)[nH]c(N)nc32)[C@](C)(O)[C@@H]1O` (single isomer, unassigned) [Compound 132a] the EC90 (HCV RNA replication; [4]) was 300 nM and the CC50 at 8 days [1] was > 20000 nM.
With `CC(C)(CO)C(=O)SCCOP(=O)(NCc1ccccc1)OC[C@H]1O[C@@H](n2cnc3c(=O)[nH]c(N)nc32)[C@](C)(O)[C@@H]1O` (single isomer, unassigned) [Compound 132b] the EC90 (HCV RNA replication; read-out: EC90) was 350 nM and the CC50 [2] was > 20000 nM.
With `CNC(=O)c1c(-c2ccc(F)cc2)oc2cc(N(CCO)S(C)(=O)=O)c(C3CC3)cc12` [Compound 44, 5-cyclopropyl-2-(4-fluorophenyl)-6-[(2-hydroxyethyl)(methylsulfonyl)amino]-N-methyl-3-Benzofurancarboxamide, reference compound] the EC90 (HCV RNA replication; [4]) was 20 nM and the CC50 [3] was > 10000 nM.
For `CC(C)OC(=O)[C@H](C)NP(=O)(OC[C@H]1O[C@@H](n2ccc(=O)[nH]c2=O)[C@](C)(F)[C@@H]1O)Oc1ccccc1` (stereo partly drawn) [Compound 110, (S)-2-{[(1R,4R,5R)-5-(2,4-Dioxo-3,4-dihydro-2H-pyrimidin-1-yl)-4-(R)-fluoro-3-hydroxy-4-methyl-tetrahydro-furan-2-ylmethoxy]-phenoxy-phosphorylamino}-propionic acid (S)-isopropyl ester], the EC90 (HCV RNA replication; read-out: EC90) was 220 nM and the CC50 [2] was > 20000 nM.
In the case of `COc1nc(N)nc2c1ncn2[C@@H]1O[C@H](CO[P@@](=O)(N[C@@H](C)C(=O)OC(C)C)Oc2ccccc2)[C@@H](O)[C@@]1(C)F` [Compound 117, SP-(2S)-isopropyl 2-(((((2R,3R,4R,5R)-5-(2-amino-6-methoxy-9H-purin-9-yl)-4-fluoro-3-hydroxy-4-methyltetrahydrofuran-2-yl)methoxy)(phenoxy)phosphoryl)amino)propanoate], the EC90 (HCV RNA replication; [4]) is reported as 130 nM and the CC50 [1] is reported as > 20000 nM.
`COc1nc(N)nc2c1ncn2[C@@H]1O[C@H](CO[P@@](=O)(N[C@@H](C)C(=O)OC(C)C)Oc2ccccc2)[C@@H](O)[C@@]1(C)O` [Compound 133, (S)-isopropyl 2-(((S)-(((2R,3R,4R,5R)-5-(2-amino-6-methoxy-9H-purin-9-yl)-3,4-dihydroxy-4-methyltetrahydrofuran-2-yl)methoxy)(phenoxy)phosphoryl)amino)propanoate] gave an EC90 (HCV RNA replication; [4]) of 78 nM and a CC50 [1] of 4140 nM.
For `CC(C)OC(=O)[C@H](C)N[P@](=O)(OC[C@H]1O[C@@H](n2cnc3c(=O)[nH]c(N)nc32)[C@](C)(O)[C@@H]1O)Oc1ccccc1` [Compound 134, (S)-isopropyl 2-(((S)-(((2R,3R,4R,5R)-5-(2-amino-6-oxo-1H-purin-9(6H)-yl)-3,4-dihydroxy-4-methyltetrahydrofuran-2-yl)methoxy)(phenoxy)phosphoryl)amino)propanoate], the EC90 (HCV RNA replication; [4]) was 560 nM and the CC50 [1] was > 20000 nM.
In the case of `CNC(=O)c1c(-c2ccc(F)cc2)oc2cc(N(CCO[P@@](=O)(N[C@@H](C)C(=O)OC(C)C)Oc3ccccc3)S(C)(=O)=O)c(C3CC3)cc12` [Compound 135, (S)-isopropyl 2-(((S)-(2-(N-(5-cyclopropyl-2-(4-fluorophenyl)-3-(methylcarbamoyl)benzofuran-6-yl)methylsulfonamido)ethoxy)(phenoxy)phosphoryl)amino)propanoate], the EC90 (HCV RNA replication; [4]) is reported as 81 nM and the CC50 [1] is reported as > 20000 nM.
For `COc1nc(N)nc2c1ncn2[C@@H]1O[C@H](COP(=O)(N[C@@H](C)C(=O)OCC(C)(C)C)Oc2cccc3ccccc23)[C@@H](O)[C@@]1(C)O` (stereo partly drawn) [Compound 137, (2S)-neopentyl 2-(((((2R,3R,4R,5R)-5-(2-amino-6-methoxy-9H-purin-9-yl)-3,4-dihydroxy-4-methyltetrahydrofuran-2-yl)methoxy)(naphthalen-1-yloxy)phosphoryl)amino)propanoate], the EC90 (HCV RNA replication; Hepatitis C virus, 96 h) was 1.7 nM and the CC50 at 8 days [1] was > 1000 nM.
In the case of `COc1nc(N)nc2c1ncn2[C@@H]1O[C@H](COP(=O)(N[C@@H](C)C(=O)OCC(C)(C)C)Oc2cccc3ccccc23)[C@@H](O)[C@@]1(C)O` (stereo partly drawn) [Compound 137a, (S)-neopentyl 2-(((((2R,3R,4R,5R)-5-(2-amino-6-methoxy-9H-purin-9-yl)-3,4-dihydroxy-4-methyltetrahydrofuran-2-yl)methoxy)(naphthalen-1-yloxy)phosphoryl)amino)propanoate], the EC90 (HCV RNA replication; [4]) is reported as 3.7 nM and the CC50 [1] is reported as 930 nM.
In the case of `CC(C)OC(=O)[C@H](C)N[P@](=O)(OC[C@H]1O[C@@H](n2ccc3c(N)ncnc32)[C@](C)(O)[C@@H]1O)Oc1ccccc1` [Compound 139, (S)-2-{(S)-[(2R,3R,4R,5R)-5-(4-amino-pyrrolo[2,3-d]pyrimidin-7-yl)-3,4-dihydroxy-4-methyl-tetrahydro-furan-2-ylmethoxy]-phenoxy-phosphorylamino}-propionic acid isopropyl ester], the EC90 (HCV RNA replication; [4]) is reported as 20 nM and the CC50 [1] is reported as > 10000 nM.
For `COc1nc(N)nc2c1ncn2[C@@H]1O[C@H](COP(=O)(N[C@@H](C)C(=O)OCC(C)(C)C)Oc2cccc3ccccc23)[C@@H](O)[C@@]1(C)F` (stereo partly drawn) [Compound 140, (2S)-neopentyl 2-(((((2R,3R,4R,5R)-5-(2-amino-6-methoxy-9H-purin-9-yl)-4-fluoro-3-hydroxy-4-methyltetrahydrofuran-2-yl)methoxy)(naphthalen-1-yloxy)phosphoryl)amino)propanoate], the EC90 (HCV RNA replication; Hepatitis C virus, 96 h) was 3.5 nM and the CC50 at 8 days [1] was > 20000 nM.
